Reference: PMC6298744 (Biochemical pharmacology, 2018)

What follows are molecules tested against T1, 5-HT2A receptor (Homo sapiens, UniProt P28223) (assay: cell-based). Conditions: EC50, 5-HT2A stimulation of IP-1 formation, mean ± sem.
T1 sequence (P28223 whole entry): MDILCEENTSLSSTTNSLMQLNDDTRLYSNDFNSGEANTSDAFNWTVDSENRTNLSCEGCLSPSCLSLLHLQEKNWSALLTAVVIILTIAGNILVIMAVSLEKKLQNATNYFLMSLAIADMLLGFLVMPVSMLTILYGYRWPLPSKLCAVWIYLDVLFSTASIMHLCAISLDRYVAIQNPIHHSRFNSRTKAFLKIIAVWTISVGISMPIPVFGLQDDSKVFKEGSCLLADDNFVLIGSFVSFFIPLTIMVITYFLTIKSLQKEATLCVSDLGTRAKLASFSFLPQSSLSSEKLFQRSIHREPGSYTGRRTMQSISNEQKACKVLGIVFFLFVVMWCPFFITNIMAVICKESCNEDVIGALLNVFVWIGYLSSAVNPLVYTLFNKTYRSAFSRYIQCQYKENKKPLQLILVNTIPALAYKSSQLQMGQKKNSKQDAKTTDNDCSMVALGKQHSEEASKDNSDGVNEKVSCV
Format: cell-based
For `COc1cc(CCNCc2ccccc2O)c(OC)cc1I` [25I-NBOH, 2-(((4-iodo-2,5-dimethoxyphenethyl)amino)methyl)phenol], the EC50 was 0.00076 ± 0.00026 µM.

Same assay, conditions: ratio of EC50 values
With `COc1cc(CCNCc2ccccc2O)c(OC)cc1I` [25I-NBOH, 2-(((4-iodo-2,5-dimethoxyphenethyl)amino)methyl)phenol] the “Selectivity (functional ratios) 5-HT2A: 5-HT2B” value was 146 and the “Selectivity (functional ratios) 5-HT2A: 5-HT2C” value was 3.1.

Same assay, conditions: read-out: % maximum stimulation, 5-HT2A stimulation of IP-1 formation
`COc1cc(CCNCc2ccccc2O)c(OC)cc1I` [25I-NBOH, 2-(((4-iodo-2,5-dimethoxyphenethyl)amino)methyl)phenol] gave an Emax of 87.5%.

These molecules were tested against T2, hDAT (Homo sapiens, UniProt Q01959) (assay: Inhibition of [^3H]DA uptake by HEK-hDAT cells). Conditions: not given.
T2 sequence (Q01959 whole entry): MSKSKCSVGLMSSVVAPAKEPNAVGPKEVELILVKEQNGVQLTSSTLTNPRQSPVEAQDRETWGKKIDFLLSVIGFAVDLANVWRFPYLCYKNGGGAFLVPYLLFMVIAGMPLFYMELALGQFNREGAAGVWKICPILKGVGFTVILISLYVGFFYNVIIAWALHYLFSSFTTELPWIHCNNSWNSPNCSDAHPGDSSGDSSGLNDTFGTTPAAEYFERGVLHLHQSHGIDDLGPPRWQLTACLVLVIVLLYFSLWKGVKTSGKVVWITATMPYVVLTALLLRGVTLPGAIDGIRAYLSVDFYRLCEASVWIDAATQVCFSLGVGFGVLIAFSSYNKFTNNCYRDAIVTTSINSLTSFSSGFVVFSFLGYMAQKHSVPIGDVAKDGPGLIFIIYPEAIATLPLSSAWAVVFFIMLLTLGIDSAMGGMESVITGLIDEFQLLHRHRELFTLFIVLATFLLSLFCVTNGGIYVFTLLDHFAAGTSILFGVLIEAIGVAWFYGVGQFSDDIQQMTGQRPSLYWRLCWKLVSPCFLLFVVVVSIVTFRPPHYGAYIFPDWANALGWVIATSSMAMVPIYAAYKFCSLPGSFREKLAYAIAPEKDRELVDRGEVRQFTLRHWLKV
Format: cell-based
With `COc1cc(CCNCc2ccccc2O)c(OC)cc1I` [25I-NBOH, 2-(((4-iodo-2,5-dimethoxyphenethyl)amino)methyl)phenol] the IC50 was 30.7 ± 5 µM.

What follows are molecules tested against T3, hNET (Homo sapiens, UniProt P23975) (assay: Release of preloaded [^3H]NE from HEK-hNET cells). Conditions: not given.
T3 sequence (P23975 whole entry): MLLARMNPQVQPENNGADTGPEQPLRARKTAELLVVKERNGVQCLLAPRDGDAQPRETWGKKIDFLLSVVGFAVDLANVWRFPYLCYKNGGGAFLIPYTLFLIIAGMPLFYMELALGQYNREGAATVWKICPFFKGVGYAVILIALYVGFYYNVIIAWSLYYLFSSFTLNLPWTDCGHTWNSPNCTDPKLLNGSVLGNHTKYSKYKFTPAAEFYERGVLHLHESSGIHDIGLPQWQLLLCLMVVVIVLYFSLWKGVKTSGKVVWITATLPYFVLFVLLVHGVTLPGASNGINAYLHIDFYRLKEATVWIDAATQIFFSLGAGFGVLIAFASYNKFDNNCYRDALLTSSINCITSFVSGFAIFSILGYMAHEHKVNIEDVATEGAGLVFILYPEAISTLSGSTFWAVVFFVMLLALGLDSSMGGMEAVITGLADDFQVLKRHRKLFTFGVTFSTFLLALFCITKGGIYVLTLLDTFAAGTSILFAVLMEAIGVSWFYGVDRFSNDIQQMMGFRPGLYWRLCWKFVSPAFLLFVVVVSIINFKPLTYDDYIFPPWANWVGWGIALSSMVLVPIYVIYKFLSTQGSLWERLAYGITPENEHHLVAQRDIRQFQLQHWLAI
Format: cell-based
In the case of `COc1cc(CCNCc2ccccc2O)c(OC)cc1I` [25I-NBOH, 2-(((4-iodo-2,5-dimethoxyphenethyl)amino)methyl)phenol], the EC50 is reported as greater than 100 µM.

Same assay, conditions: relative to maximum release induced by METH (0.3–1 μM)
`COc1cc(CCNCc2ccccc2O)c(OC)cc1I` [25I-NBOH, 2-(((4-iodo-2,5-dimethoxyphenethyl)amino)methyl)phenol] was tested, and the “% maximum release, hNET [^3H]NE” value was 16 ± 16%.

What follows are molecules tested against T2, hDAT (assay: Inhibition of [^125I]RTI-55 binding to hDAT). Conditions: not given.
Work on `COc1cc(CCNCc2ccccc2O)c(OC)cc1I` [25I-NBOH, 2-(((4-iodo-2,5-dimethoxyphenethyl)amino)methyl)phenol] yielded a Ki of 8.5 ± 0.38 µM.

Each molecule was assayed against T4, 5-HT2B receptor (Homo sapiens, UniProt P41595) (assay: 5-HT2B receptor [^3H]5-HT binding). Conditions: not given.
T4 sequence (P41595 whole entry): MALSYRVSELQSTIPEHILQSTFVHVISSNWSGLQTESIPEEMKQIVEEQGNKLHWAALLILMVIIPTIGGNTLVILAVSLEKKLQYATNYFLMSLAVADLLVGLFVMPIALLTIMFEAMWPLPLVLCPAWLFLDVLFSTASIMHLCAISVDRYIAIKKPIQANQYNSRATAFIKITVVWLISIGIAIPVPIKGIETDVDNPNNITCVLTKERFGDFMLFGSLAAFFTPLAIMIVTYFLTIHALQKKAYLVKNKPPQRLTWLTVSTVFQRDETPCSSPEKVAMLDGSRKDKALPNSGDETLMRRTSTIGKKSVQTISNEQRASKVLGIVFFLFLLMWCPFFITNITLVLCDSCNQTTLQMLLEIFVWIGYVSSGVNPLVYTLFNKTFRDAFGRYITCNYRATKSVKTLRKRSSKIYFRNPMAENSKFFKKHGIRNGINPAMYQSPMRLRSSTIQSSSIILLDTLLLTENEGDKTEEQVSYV
Work on `COc1cc(CCNCc2ccccc2O)c(OC)cc1I` [25I-NBOH, 2-(((4-iodo-2,5-dimethoxyphenethyl)amino)methyl)phenol] yielded a Ki of 0.00191 ± 0.00048 µM.

Each molecule was assayed against T3, hNET (assay: biochemical). Conditions: not given.
Format: binding
`COc1cc(CCNCc2ccccc2O)c(OC)cc1I` [25I-NBOH, 2-(((4-iodo-2,5-dimethoxyphenethyl)amino)methyl)phenol] gave a Ki of 4.06 ± 0.65 µM.

Each molecule was assayed against T4, 5-HT2B receptor (assay: 5-HT2B receptor inositol monophosphate). Conditions: not given.
Format: cell-based
For `COc1cc(CCNCc2ccccc2O)c(OC)cc1I` [25I-NBOH, 2-(((4-iodo-2,5-dimethoxyphenethyl)amino)methyl)phenol], the EC50 was 0.111 ± 0.013 µM.

Same assay, conditions: read-out: % maximum stimulation, 5-HT2B stimulation of IP-1 formation
For `COc1cc(CCNCc2ccccc2O)c(OC)cc1I` [25I-NBOH, 2-(((4-iodo-2,5-dimethoxyphenethyl)amino)methyl)phenol], the Emax was 21.3%.

These molecules were tested against T5, human 5-HT1A receptor (Homo sapiens, UniProt P08908) (assay: 5-HT1A receptor [^3H]8-OH-DPAT radioligand binding). Conditions: not given.
T5 sequence (P08908 1-422): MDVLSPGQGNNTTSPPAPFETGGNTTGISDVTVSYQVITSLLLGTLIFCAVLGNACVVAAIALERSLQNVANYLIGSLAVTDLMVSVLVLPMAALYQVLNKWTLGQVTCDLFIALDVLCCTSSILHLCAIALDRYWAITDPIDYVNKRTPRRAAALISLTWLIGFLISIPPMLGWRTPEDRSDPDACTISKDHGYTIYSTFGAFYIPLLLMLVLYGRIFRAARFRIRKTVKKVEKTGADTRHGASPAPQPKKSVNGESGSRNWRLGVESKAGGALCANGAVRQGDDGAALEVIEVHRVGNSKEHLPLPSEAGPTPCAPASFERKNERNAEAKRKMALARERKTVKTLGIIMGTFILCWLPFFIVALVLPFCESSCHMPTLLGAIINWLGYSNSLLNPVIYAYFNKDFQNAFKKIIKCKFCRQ
Work on `COc1cc(CCNCc2ccccc2O)c(OC)cc1I` [25I-NBOH, 2-(((4-iodo-2,5-dimethoxyphenethyl)amino)methyl)phenol] yielded a Ki of 2.22 ± 0.59 µM.

The molecules below were run against T3, hNET (assay: cell-based). Conditions: not given.
`COc1cc(CCNCc2ccccc2O)c(OC)cc1I` [25I-NBOH, 2-(((4-iodo-2,5-dimethoxyphenethyl)amino)methyl)phenol] showed an IC50 of 0.629 ± 0.093 µM.

Each molecule was assayed against T6, hSERT (Homo sapiens, UniProt P31645) (assay: Inhibition of [^3H]5-HT uptake by HEK-hSERT cells). Conditions: not given.
T6 sequence (P31645 whole entry): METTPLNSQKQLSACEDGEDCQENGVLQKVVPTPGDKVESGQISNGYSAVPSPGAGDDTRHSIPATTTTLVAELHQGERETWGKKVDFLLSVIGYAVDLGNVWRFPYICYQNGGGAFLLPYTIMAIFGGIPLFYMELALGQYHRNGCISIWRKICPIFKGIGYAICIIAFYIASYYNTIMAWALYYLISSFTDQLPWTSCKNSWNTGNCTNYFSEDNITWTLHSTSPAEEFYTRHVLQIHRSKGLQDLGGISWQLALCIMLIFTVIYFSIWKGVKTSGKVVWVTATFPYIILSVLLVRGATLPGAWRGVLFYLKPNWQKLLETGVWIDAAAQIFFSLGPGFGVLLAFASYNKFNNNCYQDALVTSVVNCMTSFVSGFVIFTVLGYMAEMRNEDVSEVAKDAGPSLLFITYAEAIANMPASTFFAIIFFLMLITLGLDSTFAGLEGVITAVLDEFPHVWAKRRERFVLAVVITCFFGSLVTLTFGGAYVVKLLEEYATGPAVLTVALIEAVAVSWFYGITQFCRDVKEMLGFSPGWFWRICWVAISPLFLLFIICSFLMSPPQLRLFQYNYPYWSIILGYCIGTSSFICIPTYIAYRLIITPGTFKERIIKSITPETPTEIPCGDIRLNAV
Format: cell-based
`COc1cc(CCNCc2ccccc2O)c(OC)cc1I` [25I-NBOH, 2-(((4-iodo-2,5-dimethoxyphenethyl)amino)methyl)phenol] showed an IC50 of 1.72 ± 0.25 µM.

The molecules below were run against T5, human 5-HT1A receptor (assay: 5-HT1A receptor [^35S]GTPγS binding stimulation). Conditions: not given.
Format: biochemical
`COc1cc(CCNCc2ccccc2O)c(OC)cc1I` [25I-NBOH, 2-(((4-iodo-2,5-dimethoxyphenethyl)amino)methyl)phenol] showed an EC50 of 37 ± 13 µM.

Same assay, conditions: read-out: % maximum stimulation, 5-HT1A stimulation of [^35S]GTPγS binding
`COc1cc(CCNCc2ccccc2O)c(OC)cc1I` [25I-NBOH, 2-(((4-iodo-2,5-dimethoxyphenethyl)amino)methyl)phenol] showed an Emax of 74%.

Each molecule was assayed against T2, hDAT (assay: Release of preloaded [^3H]DA from HEK-hDAT cells). Conditions: not given.
Format: cell-based
Molecule `COc1cc(CCNCc2ccccc2O)c(OC)cc1I` [25I-NBOH, 2-(((4-iodo-2,5-dimethoxyphenethyl)amino)methyl)phenol] has an EC50 greater than 100 µM.

Same assay, conditions: relative to maximum release induced by METH (1–10 μM)
`COc1cc(CCNCc2ccccc2O)c(OC)cc1I` [25I-NBOH, 2-(((4-iodo-2,5-dimethoxyphenethyl)amino)methyl)phenol] was tested, and the “% maximum release, hDAT [^3H]DA” value was −0.56 ± 0.35%.

What follows are molecules tested against T7, 5-HT2C receptor (Homo sapiens, UniProt P28335) (assay: cell-based). Conditions: not given.
T7 sequence (P28335 33-458): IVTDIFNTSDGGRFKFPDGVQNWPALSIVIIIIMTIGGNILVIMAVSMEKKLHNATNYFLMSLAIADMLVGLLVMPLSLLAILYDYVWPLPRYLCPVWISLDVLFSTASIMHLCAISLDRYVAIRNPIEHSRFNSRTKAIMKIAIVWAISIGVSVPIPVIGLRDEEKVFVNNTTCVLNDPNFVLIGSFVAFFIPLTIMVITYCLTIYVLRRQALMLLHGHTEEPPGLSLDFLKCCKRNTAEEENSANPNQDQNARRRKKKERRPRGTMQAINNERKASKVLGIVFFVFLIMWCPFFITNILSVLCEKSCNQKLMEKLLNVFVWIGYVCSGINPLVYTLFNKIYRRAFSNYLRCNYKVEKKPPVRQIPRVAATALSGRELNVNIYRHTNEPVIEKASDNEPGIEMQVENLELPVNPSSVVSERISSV
`COc1cc(CCNCc2ccccc2O)c(OC)cc1I` [25I-NBOH, 2-(((4-iodo-2,5-dimethoxyphenethyl)amino)methyl)phenol] was tested, and the EC50 was 0.00238 ± 0.00072 µM.

Same assay, conditions: read-out: % maximum stimulation, 5-HT2C stimulation of IP-1 formation
`COc1cc(CCNCc2ccccc2O)c(OC)cc1I` [25I-NBOH, 2-(((4-iodo-2,5-dimethoxyphenethyl)amino)methyl)phenol] gave an Emax of 94%.

These molecules were tested against T6, hSERT (assay: Release of preloaded [^3H]5-HT from HEK-hSERT cells). Conditions: not given.
Format: cell-based
Molecule `COc1cc(CCNCc2ccccc2O)c(OC)cc1I` [25I-NBOH, 2-(((4-iodo-2,5-dimethoxyphenethyl)amino)methyl)phenol] has an EC50 greater than 100 µM.

Same assay, conditions: relative to maximum release induced by METH (0.3–1 mM)
`COc1cc(CCNCc2ccccc2O)c(OC)cc1I` [25I-NBOH, 2-(((4-iodo-2,5-dimethoxyphenethyl)amino)methyl)phenol] was tested, and the “% maximum release, hSERT [^3H]5-HT” value was −0.27 ± 0.40%.

These molecules were tested against T1, 5-HT2A receptor (assay: biochemical). Conditions: not given.
Format: binding
Work on `COc1cc(CCNCc2ccccc2O)c(OC)cc1I` [25I-NBOH, 2-(((4-iodo-2,5-dimethoxyphenethyl)amino)methyl)phenol] yielded a Ki of 0.000169 ± 1.3e-05 µM.

Same assay, conditions: ratio of Ki values
`COc1cc(CCNCc2ccccc2O)c(OC)cc1I` [25I-NBOH, 2-(((4-iodo-2,5-dimethoxyphenethyl)amino)methyl)phenol] was tested, and the “Selectivity (binding ratios) 5-HT2A : 5-HT1A” value was 13100, the “Selectivity (binding ratios) 5-HT2A : 5-HT2B” value was 11 and the “Selectivity (binding ratios) 5-HT2A : 5-HT2C” value was 6.1.

The molecules below were run against T6, hSERT (assay: Inhibition of [^125I]RTI-55 binding to hSERT). Conditions: not given.
`COc1cc(CCNCc2ccccc2O)c(OC)cc1I` [25I-NBOH, 2-(((4-iodo-2,5-dimethoxyphenethyl)amino)methyl)phenol] gave a Ki of 1.22 ± 0.21 µM.
